These compounds were tested against Histamine H1 receptor (Homo sapiens, UniProt P35367) (assay: Antagonistic activity against histamine H1 receptor).
Format: functional

Chain of Histamine H1 receptor (P35367 whole entry): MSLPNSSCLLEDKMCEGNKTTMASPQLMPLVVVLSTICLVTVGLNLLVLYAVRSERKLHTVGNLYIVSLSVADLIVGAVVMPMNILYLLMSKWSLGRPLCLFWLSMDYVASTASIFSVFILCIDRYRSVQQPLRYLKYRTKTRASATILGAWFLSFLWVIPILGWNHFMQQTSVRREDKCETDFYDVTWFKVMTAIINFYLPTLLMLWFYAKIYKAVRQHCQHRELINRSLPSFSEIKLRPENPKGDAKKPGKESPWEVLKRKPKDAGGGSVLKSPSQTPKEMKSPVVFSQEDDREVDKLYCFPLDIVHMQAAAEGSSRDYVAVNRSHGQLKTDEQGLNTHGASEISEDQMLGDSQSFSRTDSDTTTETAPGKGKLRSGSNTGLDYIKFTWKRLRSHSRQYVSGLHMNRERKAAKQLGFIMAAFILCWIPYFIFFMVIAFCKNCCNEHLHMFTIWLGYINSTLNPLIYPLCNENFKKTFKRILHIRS

Which IC50 does the source give for `COc1cc(C(=O)N2CCC(CCN3CCC(C(=O)c4nc5ccccc5n4Cc4ccc(F)cc4)CC3)(c3ccc(F)cc3F)C2)cc(OC)c1OC` (stereo not drawn) here?
The IC50 was 437 nM.

Which IC50 does the source give for `COc1ccc(C2(CCN3CCC(C(=O)c4nc5ccccc5n4Cc4ccc(C(=O)O)cc4)CC3)CCN(C(=O)c3cc(OC)c(OC)c(OC)c3)C2)cc1OC` (stereo not drawn) here?
The IC50 was 27500 nM.

Which IC50 does the source give for `CCOC(=O)CCCn1c(C(=O)C2CCN(CCC3(c4ccc(Cl)c(Cl)c4)CCN(C(=O)c4cc(OC)c(OC)c(OC)c4)C3)CC2)nc2ccccc21` (stereo not drawn) here?
The IC50 was 955 nM.

With `CC(C)Oc1cccc(CC(=O)N2CCC(CCN3CCC(C(=O)c4nc5ccccc5n4Cc4ccc(F)cc4)CC3)(c3ccc4c(c3)OCO4)C2)c1` (stereo not drawn) as the compound, how does the IC50 read?
The IC50 was 251 nM.

For `COc1cc(C(=O)N2CCC(CCN3CCC(C(=O)c4nc5ccccc5n4Cc4ccc(F)cc4)CC3)(c3ccc4c(c3)OCO4)C2)cc(OC)c1OC` (stereo not drawn), which IC50 is on record?
Its IC50 is 204 nM.

`COc1cc(C(=O)N2CCC(CCN3CCC(C(=O)c4nc5ccccc5[nH]4)CC3)(c3ccc(Cl)c(Cl)c3)C2)cc(OC)c1OC` (stereo not drawn) was tested. Which IC50 did it give?
Its IC50 is 407 nM.

`CCOCCn1c(C(=O)C2CCN(CCC3(c4ccccc4)CCN(C(=O)c4cc(OC)c(OC)c(OC)c4)C3)CC2)nc2ccccc21` (stereo not drawn) was tested. Which IC50 did it give?
The IC50 was 380 nM.

With `COc1ccc(C2(CCN3CCC(C(=O)c4nc5ccccc5n4Cc4ccc(F)cc4)CC3)CCN(C(=O)c3ccccc3)C2)cc1OC` (stereo not drawn) as the compound, how does the IC50 read?
Its IC50 is 240 nM.

Which IC50 does the source give for `CCOCCn1c(C(=O)C2CCN(CCC3(c4ccc(OC)c(OC)c4)CCN(C(=O)c4cc(OC)c(OC)c(OC)c4)C3)CC2)nc2ccccc21` (stereo not drawn) here?
Its IC50 is 631 nM.

How did the IC50 turn out when `COC(=O)c1ccc(Cn2c(C(=O)C3CCN(CCC4(c5ccccc5)CCN(C(=O)c5cc(OC)c(OC)c(OC)c5)C4)CC3)nc3ccccc32)cc1` (stereo not drawn) was run?
The IC50 was 1170 nM.

For `COc1cc(C(=O)N2CCCC(CCN3CCC(C(=O)c4nc5ccccc5n4Cc4ccc(F)cc4)CC3)(c3ccc(Cl)c(Cl)c3)C2)cc(OC)c1OC` (stereo not drawn), which IC50 is on record?
The IC50 was 214 nM.

How did the IC50 turn out when `COc1cc(C(=O)N2CCC(CCN3CCC(C(=O)c4nc5ccccc5n4Cc4cccnc4)CC3)(c3ccccc3)C2)cc(OC)c1OC` (stereo not drawn) was run?
The IC50 was 417 nM.

For `CCOc1cc(C(=O)N2CCC(CCN3CCC(C(=O)c4nc5ccccc5n4Cc4ccc(F)cc4)CC3)(c3ccc(OC)c(OC)c3)C2)cc(OCC)c1OCC` (stereo not drawn), which IC50 is on record?
The IC50 was 158 nM.

How did the IC50 turn out when `COc1cc(C(=O)N2CCC(CCN3CCC(C(=O)c4nc5ccccc5[nH]4)CC3)(c3ccccc3)C2)cc(OC)c1OC` (stereo not drawn) was run?
Its IC50 is 501 nM.

Which IC50 does the source give for `COc1cc(C(=O)N2CCC(CCN3CCC(C(=O)c4nc5ccccc5n4Cc4ccncc4)CC3)(c3ccccc3)C2)cc(OC)c1OC` (stereo not drawn) here?
The IC50 was 282 nM.

How did the IC50 turn out when `COc1cc(C(=O)N2CCC(CCN3CCC(C(=O)c4nc5ccccc5n4Cc4ccc(C(=O)O)cc4)CC3)(c3ccccc3)C2)cc(OC)c1OC` (stereo not drawn) was run?
Its IC50 is 33900 nM.

With `COc1cc(C(=O)N2CCC(CCN3CCC(C(=O)c4nc5ccccc5n4CCCCOc4ccccc4C(=O)O)CC3)(c3ccccc3)C2)cc(OC)c1OC` (stereo not drawn) as the compound, how does the IC50 read?
The IC50 was 9120 nM.

`COc1ccc(C2(CCN3CCC(C(=O)c4nc5ccccc5n4Cc4ccccn4)CC3)CCN(C(=O)c3cc(OC)c(OC)c(OC)c3)C2)cc1` (stereo not drawn) was tested. Which IC50 did it give?
The IC50 was 501 nM.

`COc1ccc(C2(CCN3CCC(C(=O)c4nc5ccccc5n4Cc4ccc(F)cc4)CC3)CCN(C(=O)c3cc(OC)c(OC)c(OC)c3)C2)cc1OC` (stereo not drawn) was tested. Which IC50 did it give?
Its IC50 is 331 nM.

`COc1cc(C(=O)N2CCC(CCN3CCC(C(=O)c4nc5ccccc5n4Cc4ccccn4)CC3)(c3ccc(F)cc3)C2)cc(OC)c1OC` (stereo not drawn) was tested. Which IC50 did it give?
The IC50 was 562 nM.

For `COc1ccc(C(=O)N2CCC(CCN3CCC(C(=O)c4nc5ccccc5n4Cc4ccc(F)cc4)CC3)(c3ccc4c(c3)OCO4)C2)c(OC)c1OC` (stereo not drawn), which IC50 is on record?
The IC50 was 257 nM.

With `COc1cc(C(=O)N2CCC(CCN3CCC(C(=O)c4nc5ccccc5n4CCCC(=O)O)CC3)(c3ccc(Cl)c(Cl)c3)C2)cc(OC)c1OC` (stereo not drawn) as the compound, how does the IC50 read?
The IC50 was 10000 nM.

`COc1cc(C(=O)N2CCC(CCN3CCC(C(=O)c4nc5ccccc5n4Cc4ccc(F)cc4)CC3)(c3ccc(C(F)(F)F)cc3)C2)cc(OC)c1OC` (stereo not drawn) was tested. Which IC50 did it give?
The IC50 was 468 nM.

Which IC50 does the source give for `CCOCCn1c(C(=O)C2CCN(CCC3(c4ccc(F)cc4)CCN(Cc4cc(OC)c(OC)c(OC)c4)C3=O)CC2)nc2ccccc21` (stereo not drawn) here?
Its IC50 is 251 nM.

How did the IC50 turn out when `COC(=O)c1ccccc1OCCCn1c(C(=O)C2CCN(CCC3(c4ccccc4)CCN(C(=O)c4cc(OC)c(OC)c(OC)c4)C3)CC2)nc2ccccc21` (stereo not drawn) was run?
The IC50 was 1000 nM.

How did the IC50 turn out when `COc1ccc(CCN2CCC(C(=O)c3nc4ccccc4n3Cc3ccc(F)cc3)CC2)cc1` was run?
The IC50 was 58.9 nM.

Which IC50 does the source give for `COc1cc(C(=O)N2CCC(CCN3CCC(C(=O)c4nc5ccccc5n4CCOCc4ccco4)CC3)(c3ccccc3)C2)cc(OC)c1OC` (stereo not drawn) here?
The IC50 was 447 nM.

`COc1cc(C(=O)N2CCC(CCN3CCC(C(=O)c4nc5ccccc5n4Cc4ccccn4)CC3)(c3ccc(Cl)c(Cl)c3)C2)cc(OC)c1OC` (stereo not drawn) was tested. Which IC50 did it give?
Its IC50 is 437 nM.

Which IC50 does the source give for `COc1cc(C(=O)N2CCC(CCN3CCC(C(=O)c4nc5ccccc5n4Cc4ccco4)CC3)(c3ccccc3)C2)cc(OC)c1OC` (stereo not drawn) here?
Its IC50 is 295 nM.

`COC(=O)c1ccc(Cn2c(C(=O)C3CCN(CCC4(c5ccc(OC)c(OC)c5)CCN(C(=O)c5cc(OC)c(OC)c(OC)c5)C4)CC3)nc3ccccc32)cc1` (stereo not drawn) was tested. Which IC50 did it give?
The IC50 was 955 nM.

`CCOCCn1c(C(=O)C2CCN(CCC3(c4ccc(Cl)c(Cl)c4)CCN(C(=O)c4cc(OC)c(OC)c(OC)c4)C3)CC2)nc2ccccc21` (stereo not drawn) was tested. Which IC50 did it give?
The IC50 was 339 nM.

`COc1ccc(C2(CCN3CCC(C(=O)c4nc5ccccc5[nH]4)CC3)CCN(C(=O)c3cc(OC)c(OC)c(OC)c3)C2)cc1OC` (stereo not drawn) was tested. Which IC50 did it give?
Its IC50 is 1950 nM.

With `COc1cc(C(=O)N2CCC(CCN3CCC(C(=O)c4nc5ccccc5n4Cc4ccccn4)CC3)(c3ccccc3)C2)cc(OC)c1OC` (stereo not drawn) as the compound, how does the IC50 read?
Its IC50 is 363 nM.

With `O=C(c1nc2ccccc2n1Cc1ccc(F)cc1)C1CCN(CCC2(c3ccc4c(c3)OCO4)CCN(C(=O)c3ccc(Cl)cc3Cl)C2)CC1` (stereo not drawn) as the compound, how does the IC50 read?
The IC50 was 129 nM.

`COc1cc(C(=O)N2CCC(CCN3CCC(C(=O)c4nc5ccccc5n4CCN4CCOCC4)CC3)(c3ccc(Cl)c(Cl)c3)C2)cc(OC)c1OC` (stereo not drawn) was tested. Which IC50 did it give?
The IC50 was 550 nM.

How did the IC50 turn out when `COc1cc(C(=O)N2CCC(CCN3CCC(C(=O)c4nc5ccccc5n4Cc4ccc(F)cc4)CC3)(c3ccc(Cl)c(Cl)c3)C2)cc(OC)c1OC` (stereo not drawn) was run?
The IC50 was 282 nM.

`COc1ccc(CCN2CCC(=Nc3nc4ccccc4n3Cc3ccc(F)cc3)CC2)cc1` was tested. Which IC50 did it give?
Its IC50 is 46.8 nM.

With `COc1cc(C(=O)N2CCC(CCN3CCC(C(=O)c4nc5ccccc5n4Cc4ccc(F)cc4)CC3)(c3ccccc3)C2)cc(OC)c1OC` (stereo not drawn) as the compound, how does the IC50 read?
The IC50 was 234 nM.
